Like-named read-outs stand apart in the source and are kept apart here. Where a SMILES comes first, the peptide text is derived from it. [ ]: non-standard residue; d: D form. Aoe = N[C@@H](CCCCCC(=O)[C@@H]1CO1)C(=O)O

The test system of data set [1] is p16 expression. Put plainly: p16 expression by semi-quantitative RT-PCR in control cell lines. Type of data set: cell-based, human. As to conditions: 5uM on three consecutive days; H23 and H441 cell lines.
Data set [2] concerns the target HDAC4 (Homo sapiens, UniProt P56524). The note with it: Class 2 HDAC; cited from earlier work.
The target of data set [3] is T1, HDAC6 (Homo sapiens, UniProt Q9UBN7).
T1 sequence (Q9UBN7 1-1215): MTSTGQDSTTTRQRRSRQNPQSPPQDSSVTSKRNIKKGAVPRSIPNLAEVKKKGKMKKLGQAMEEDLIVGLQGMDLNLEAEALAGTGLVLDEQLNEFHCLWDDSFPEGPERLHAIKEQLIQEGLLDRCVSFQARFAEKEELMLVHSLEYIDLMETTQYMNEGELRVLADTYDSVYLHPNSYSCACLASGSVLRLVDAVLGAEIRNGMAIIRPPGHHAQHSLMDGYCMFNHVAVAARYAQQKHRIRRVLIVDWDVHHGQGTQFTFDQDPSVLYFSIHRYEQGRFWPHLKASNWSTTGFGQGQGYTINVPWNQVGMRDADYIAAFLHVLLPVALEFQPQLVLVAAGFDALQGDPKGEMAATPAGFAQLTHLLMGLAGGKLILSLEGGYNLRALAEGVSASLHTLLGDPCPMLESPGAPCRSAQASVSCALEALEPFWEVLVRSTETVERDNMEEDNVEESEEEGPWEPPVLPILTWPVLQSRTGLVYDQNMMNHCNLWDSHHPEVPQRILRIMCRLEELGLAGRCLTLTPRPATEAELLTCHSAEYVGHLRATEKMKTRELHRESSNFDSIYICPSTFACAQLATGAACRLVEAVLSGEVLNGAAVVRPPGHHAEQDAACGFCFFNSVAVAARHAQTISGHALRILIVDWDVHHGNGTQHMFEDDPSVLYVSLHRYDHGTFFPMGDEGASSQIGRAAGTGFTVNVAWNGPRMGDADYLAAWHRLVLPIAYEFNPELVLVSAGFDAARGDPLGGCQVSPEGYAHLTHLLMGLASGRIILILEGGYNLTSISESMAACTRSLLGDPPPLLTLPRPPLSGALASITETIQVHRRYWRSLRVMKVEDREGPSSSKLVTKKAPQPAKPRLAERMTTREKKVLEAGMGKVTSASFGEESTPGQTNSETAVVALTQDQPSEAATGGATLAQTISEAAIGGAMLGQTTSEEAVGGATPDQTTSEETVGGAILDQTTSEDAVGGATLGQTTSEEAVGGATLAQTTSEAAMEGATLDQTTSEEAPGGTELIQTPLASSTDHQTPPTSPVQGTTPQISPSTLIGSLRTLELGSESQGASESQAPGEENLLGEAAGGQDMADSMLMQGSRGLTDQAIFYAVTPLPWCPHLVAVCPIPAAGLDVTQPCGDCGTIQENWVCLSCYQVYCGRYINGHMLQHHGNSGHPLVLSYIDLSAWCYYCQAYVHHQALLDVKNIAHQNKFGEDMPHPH
The note with it: Class 2 HDAC; cited from earlier work.

The target in data set [4] is HDAC1 (Homo sapiens, UniProt Q13547). As to conditions: cited from earlier work; for Sensitivity of HDAC1 to the inhibitor: Class 1 HDAC.
The target in data set [5] is HDAC3 (Homo sapiens, UniProt O15379). The note with it: cited from earlier work; for IC50: read-out: IC50 HDAC3.
The subject of data set [6] is H23 and SW13 cell lines. Kind of data set: Toxicity to BRG1/BRM-deficient cell lines. Type of data set: cell-based, human. As to conditions: most pronounced in the H23 and SW13 cell lines.
Data set [7] deals with T2, HDAC10 (Homo sapiens, UniProt Q969S8).
T2 sequence (Q969S8 1-669): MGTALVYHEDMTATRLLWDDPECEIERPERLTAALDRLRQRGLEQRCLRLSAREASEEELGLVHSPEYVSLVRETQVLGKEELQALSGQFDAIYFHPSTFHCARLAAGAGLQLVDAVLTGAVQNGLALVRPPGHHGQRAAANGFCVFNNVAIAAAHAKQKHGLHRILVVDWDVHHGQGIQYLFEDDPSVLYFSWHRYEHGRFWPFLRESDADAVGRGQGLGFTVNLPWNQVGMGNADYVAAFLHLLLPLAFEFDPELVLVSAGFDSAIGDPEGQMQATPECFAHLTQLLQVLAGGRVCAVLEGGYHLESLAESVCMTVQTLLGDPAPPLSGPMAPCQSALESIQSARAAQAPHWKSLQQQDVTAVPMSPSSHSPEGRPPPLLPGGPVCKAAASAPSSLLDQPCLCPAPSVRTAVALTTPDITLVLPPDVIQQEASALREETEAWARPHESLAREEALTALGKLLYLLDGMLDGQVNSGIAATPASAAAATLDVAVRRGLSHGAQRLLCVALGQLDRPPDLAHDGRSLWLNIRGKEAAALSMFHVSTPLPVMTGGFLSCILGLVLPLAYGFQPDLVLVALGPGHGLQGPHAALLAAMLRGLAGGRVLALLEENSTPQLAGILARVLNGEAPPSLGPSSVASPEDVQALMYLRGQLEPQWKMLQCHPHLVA
The note with it: Class 2 HDAC; cited from earlier work.

The target in data set [8] is T3, HDAC8 (Homo sapiens, UniProt Q9BY41).
T3 sequence (Q9BY41 1-377): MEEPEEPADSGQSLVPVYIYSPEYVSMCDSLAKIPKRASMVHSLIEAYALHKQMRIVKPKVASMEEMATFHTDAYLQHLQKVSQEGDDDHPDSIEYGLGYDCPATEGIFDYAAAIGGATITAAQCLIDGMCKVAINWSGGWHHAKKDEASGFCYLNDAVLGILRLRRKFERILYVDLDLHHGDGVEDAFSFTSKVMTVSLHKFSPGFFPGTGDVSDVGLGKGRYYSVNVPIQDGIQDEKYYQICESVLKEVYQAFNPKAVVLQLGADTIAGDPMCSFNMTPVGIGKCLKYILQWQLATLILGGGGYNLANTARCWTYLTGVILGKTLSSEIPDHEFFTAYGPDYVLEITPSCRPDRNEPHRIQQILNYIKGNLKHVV
As to conditions: Class 1 HDAC; cited from earlier work.

Data set [9] deals with HDAC9 (Homo sapiens, UniProt Q9UKV0). The note with it: Class 2 HDAC; cited from earlier work.
The test system of data set [10] is Class 3 HDACs. As to conditions: cited from earlier work.
Data set [11] has as its target HDAC5 (Homo sapiens, UniProt Q9UQL6). As to conditions: Class 2 HDAC; cited from earlier work.
For data set [12], the target named is HDAC2 (Homo sapiens, UniProt Q92769). The note with it: Class 1 HDAC; cited from earlier work.
The subject of data set [13] is BRM expression. Kind of data set: Time course of BRM expression in SW13 cells with butyrate and after its removal. Type of data set: cell-based, human. The procedure:
Cells were treated daily with sodium butyrate (5 mM). Total protein was extracted at 4, 12, 24, 36, […], and 72 hours after the first dosage. Upregulation of BRM with butyrate treatment was detected after 12 hours and reached a plateau between 24 and 48 hours. GAPDH was the loading control. […] Cells were treated with sodium butyrate at a final concentration of 5 mM for three consecutive days. On the fourth day, the medium was changed and cells were harvested at various time points for protein detection. BRM protein levels declined and returned to baseline after 4-5 days. (NaBut=sodium butyrate, un=untreated).
This Example describes an analysis of the temporal effects of HDAC inhibitors on BRM re-expression. In partciular, to understand how HDAC inhibitors affected BRM expression, the time course at which BRM expression in SW13 cells was induced by continued exposure to butyrate was determined. The upregulation of BRM expression was detected by western blot analysis at 12 hours and reached a plateau at 24 hours. Little change in BRM expression occurred with continued treatment for an additional 48 hours (FIG. 3A). This process was reversible, as BRM expression returned to pretreatment levels after removal of sodium butyrate. To further characterize this effect, SW13 cells were treated with butyrate for 72 hours, sodium butyrate was removed, and BRM levels were measured by western blotting from 0 to 6 days. The BRM protein levels remained elevated for 72 hours and returned to near baseline levels at 96 hours (FIG. 3B). In parallel with BRM protein, the BRM mRNA level determined by quantative RT-PCR, also remained elevated for 3 days, returning to baseline level by 4 days. These findings indicate the changes in BRM protein levels paralleled the changes in the BRM mRNA levels.

In data set [14] the test system is BRM expression. Kind of data set: BRM mRNA (RT-PCR) and protein (western blotting) expression in BRG1/BRM-deficient cell lines after treatment.
From the text: This example describes the treatment of cells lines with undetectable BRG1 and BRM protein expression with various HDAC inhibitors or 5-aza-deoxycytidine (5-azaCdR). […] This upregulation effect was also examined in the six other BRG1/BRM-deficient cell lines, using RT-PCR.
Setting [15] is: SW13, continued exposure, 5 mM daily (FIG. 3A).
[16] abbreviates: SW13, treated 72 hours, then removed.
The mark [17] stands for this setting: SW13, treated 72 hours, then removed (FIG. 3B).

Chain of HDAC3 (O15379 whole entry): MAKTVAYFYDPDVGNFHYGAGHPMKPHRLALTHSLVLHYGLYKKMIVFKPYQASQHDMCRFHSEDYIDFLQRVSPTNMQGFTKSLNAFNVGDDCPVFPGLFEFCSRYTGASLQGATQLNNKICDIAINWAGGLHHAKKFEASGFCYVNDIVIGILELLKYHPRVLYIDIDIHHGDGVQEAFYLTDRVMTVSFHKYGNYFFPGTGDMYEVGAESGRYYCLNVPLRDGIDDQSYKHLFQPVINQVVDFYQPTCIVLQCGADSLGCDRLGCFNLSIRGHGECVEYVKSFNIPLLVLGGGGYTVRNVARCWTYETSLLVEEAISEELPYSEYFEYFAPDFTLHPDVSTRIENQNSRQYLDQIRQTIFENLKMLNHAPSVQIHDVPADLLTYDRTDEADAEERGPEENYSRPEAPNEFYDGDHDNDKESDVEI
Chain of HDAC3 (Q9Y618 395-489 partner limits assumed): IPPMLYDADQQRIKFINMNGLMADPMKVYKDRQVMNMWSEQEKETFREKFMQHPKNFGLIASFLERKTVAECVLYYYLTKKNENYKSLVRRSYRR
Chain of HDAC1 (Q13547 whole entry): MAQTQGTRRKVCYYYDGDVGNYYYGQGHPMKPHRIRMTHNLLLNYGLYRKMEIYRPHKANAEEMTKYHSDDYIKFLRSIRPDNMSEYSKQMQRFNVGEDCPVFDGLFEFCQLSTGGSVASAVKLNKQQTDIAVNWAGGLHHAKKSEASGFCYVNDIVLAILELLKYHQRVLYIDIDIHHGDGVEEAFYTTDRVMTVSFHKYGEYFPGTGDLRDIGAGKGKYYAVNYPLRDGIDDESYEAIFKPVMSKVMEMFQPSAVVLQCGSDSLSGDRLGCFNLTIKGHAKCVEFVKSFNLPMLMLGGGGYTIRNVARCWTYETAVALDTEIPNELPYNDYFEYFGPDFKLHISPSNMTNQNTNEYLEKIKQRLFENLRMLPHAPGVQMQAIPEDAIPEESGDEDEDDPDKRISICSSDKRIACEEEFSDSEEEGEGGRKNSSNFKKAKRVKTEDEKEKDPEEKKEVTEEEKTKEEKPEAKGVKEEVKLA
Chain of HDAC4 (P56524 whole entry): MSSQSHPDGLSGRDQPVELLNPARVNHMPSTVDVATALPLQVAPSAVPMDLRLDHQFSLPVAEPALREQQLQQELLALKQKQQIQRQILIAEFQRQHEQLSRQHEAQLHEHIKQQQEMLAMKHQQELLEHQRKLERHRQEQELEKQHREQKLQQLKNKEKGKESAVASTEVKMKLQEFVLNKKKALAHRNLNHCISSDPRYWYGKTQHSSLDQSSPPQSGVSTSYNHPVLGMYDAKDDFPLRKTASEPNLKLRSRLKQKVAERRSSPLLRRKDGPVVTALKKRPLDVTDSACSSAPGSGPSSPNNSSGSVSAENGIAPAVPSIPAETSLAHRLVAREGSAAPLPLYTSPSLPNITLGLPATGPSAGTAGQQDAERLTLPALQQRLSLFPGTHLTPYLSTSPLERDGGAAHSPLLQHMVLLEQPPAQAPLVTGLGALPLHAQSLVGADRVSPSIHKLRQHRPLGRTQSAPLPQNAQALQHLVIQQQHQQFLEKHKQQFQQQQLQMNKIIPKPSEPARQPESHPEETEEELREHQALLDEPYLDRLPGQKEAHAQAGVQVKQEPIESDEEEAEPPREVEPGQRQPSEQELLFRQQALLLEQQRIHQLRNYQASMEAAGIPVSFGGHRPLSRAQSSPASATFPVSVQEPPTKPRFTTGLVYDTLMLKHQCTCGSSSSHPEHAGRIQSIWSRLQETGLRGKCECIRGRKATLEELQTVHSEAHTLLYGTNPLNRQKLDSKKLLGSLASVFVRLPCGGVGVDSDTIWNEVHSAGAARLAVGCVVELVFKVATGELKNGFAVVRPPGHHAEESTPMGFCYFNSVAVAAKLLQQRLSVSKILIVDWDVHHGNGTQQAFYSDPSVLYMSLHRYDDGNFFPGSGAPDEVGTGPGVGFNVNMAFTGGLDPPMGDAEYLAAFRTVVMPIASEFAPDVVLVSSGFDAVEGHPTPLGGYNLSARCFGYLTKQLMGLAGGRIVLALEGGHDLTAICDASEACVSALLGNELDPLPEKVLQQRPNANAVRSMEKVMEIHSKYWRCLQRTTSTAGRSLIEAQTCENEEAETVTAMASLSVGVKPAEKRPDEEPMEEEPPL
Chain of HDAC5 (Q9UQL6 whole entry): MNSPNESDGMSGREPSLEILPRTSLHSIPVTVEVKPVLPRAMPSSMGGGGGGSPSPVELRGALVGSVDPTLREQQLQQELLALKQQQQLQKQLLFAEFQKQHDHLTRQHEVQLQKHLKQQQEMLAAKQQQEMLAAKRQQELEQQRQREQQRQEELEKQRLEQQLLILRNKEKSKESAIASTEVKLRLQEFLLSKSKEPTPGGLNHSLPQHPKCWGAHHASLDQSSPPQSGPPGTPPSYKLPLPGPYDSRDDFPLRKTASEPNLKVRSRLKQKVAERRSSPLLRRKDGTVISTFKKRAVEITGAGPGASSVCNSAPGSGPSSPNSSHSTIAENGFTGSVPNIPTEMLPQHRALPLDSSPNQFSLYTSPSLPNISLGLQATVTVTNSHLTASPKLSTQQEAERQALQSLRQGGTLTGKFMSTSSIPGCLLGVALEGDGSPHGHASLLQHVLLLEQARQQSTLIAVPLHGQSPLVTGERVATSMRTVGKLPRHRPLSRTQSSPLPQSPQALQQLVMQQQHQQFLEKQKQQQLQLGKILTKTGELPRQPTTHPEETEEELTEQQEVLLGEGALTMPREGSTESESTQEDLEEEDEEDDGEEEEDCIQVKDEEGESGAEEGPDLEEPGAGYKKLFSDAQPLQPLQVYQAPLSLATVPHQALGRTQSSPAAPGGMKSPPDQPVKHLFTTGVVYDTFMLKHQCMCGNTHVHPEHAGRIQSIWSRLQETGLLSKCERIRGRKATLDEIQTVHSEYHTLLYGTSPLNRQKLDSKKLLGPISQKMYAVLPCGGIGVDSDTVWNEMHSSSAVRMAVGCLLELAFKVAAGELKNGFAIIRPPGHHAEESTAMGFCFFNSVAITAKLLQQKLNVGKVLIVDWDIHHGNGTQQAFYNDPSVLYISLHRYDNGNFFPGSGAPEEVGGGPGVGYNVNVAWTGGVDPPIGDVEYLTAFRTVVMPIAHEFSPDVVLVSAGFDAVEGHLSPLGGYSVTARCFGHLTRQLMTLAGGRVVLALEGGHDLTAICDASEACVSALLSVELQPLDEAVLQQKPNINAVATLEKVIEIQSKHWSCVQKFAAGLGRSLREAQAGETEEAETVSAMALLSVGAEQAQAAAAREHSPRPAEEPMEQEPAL
Chain of HDAC9 (Q9UKV0 whole entry): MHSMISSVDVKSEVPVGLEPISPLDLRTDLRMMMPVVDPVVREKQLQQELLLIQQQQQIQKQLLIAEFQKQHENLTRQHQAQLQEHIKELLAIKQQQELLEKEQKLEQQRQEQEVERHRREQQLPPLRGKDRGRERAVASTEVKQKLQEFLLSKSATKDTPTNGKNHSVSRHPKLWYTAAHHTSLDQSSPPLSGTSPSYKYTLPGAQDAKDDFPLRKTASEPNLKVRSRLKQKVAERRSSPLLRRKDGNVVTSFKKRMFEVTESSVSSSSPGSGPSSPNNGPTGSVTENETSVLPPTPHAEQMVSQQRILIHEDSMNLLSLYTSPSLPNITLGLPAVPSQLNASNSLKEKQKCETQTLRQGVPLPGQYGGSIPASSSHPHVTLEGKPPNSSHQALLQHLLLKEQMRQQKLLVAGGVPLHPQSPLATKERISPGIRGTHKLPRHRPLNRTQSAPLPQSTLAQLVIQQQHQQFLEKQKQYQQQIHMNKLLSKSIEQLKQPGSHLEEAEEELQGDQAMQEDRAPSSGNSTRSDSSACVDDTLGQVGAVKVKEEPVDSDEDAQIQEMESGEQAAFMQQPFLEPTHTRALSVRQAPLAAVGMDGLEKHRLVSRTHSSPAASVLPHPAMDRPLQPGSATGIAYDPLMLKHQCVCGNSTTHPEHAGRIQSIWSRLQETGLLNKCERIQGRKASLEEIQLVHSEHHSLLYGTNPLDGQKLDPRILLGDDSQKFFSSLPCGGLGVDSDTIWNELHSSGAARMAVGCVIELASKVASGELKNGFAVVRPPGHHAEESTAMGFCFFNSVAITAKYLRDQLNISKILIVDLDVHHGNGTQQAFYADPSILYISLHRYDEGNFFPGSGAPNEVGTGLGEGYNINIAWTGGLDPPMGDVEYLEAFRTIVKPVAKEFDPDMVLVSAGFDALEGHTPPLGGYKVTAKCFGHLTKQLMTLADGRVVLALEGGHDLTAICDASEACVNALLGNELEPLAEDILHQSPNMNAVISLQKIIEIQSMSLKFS
Chain of HDAC2 (Q92769 whole entry): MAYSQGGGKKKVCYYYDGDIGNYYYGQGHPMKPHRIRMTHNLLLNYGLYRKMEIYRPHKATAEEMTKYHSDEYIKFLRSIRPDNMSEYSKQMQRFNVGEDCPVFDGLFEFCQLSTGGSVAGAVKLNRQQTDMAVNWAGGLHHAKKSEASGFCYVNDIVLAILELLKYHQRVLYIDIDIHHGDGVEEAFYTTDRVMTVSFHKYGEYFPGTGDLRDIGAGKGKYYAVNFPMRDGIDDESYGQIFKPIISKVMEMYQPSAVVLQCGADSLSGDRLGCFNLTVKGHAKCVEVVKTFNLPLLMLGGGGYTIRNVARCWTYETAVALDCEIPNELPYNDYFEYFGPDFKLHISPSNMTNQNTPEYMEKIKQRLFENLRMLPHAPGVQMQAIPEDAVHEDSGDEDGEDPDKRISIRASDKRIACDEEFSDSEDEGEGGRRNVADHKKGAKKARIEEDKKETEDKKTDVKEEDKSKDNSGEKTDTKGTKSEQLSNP

Consider `Nc1ncn([C@H]2C[C@H](O)[C@@H](CO)O2)c(=O)n1` [5azaCytD, 5-aza-deoxycytidine], for which the “Silencing of p16, semi-quantitative RT-PCR” value in [1] is “reversed”.
Turning to `C/C=C1\NC(=O)[C@H]2CSSCC/C=C/[C@H](CC(=O)N[C@H](C(C)C)C(=O)N2)OC(=O)[C@H](C(C)C)NC1=O` [FR901228], in data set [2], the “Sensitivity of HDAC4 to the inhibitor” value is given as “weak”. Moreover, the “Sensitivity of HDAC6 to the inhibitor” value in data set [3] is on record as “weak”. Besides, in [4], the “Sensitivity of HDAC1 to the inhibitor” value is “Yes”. Further, the “Sensitivity of HDAC3 to the inhibitor” value in data set [5] (Class 1 HDAC) is given as “Yes”.
In the case of `Nc1ccccc1NC(=O)c1ccc(CNC(=O)OCc2cccnc2)cc1` [MS-275], the “Toxicity to cell lines compared to butyrate” value in data set [6] is “increased toxicity”.
As usually defined, the IC50 is the point on the concentration scale where inhibition reaches its midpoint. On to `O=C1N[C@@H](Cc2ccccc2)C(=O)N2CCC[C@@H]2C(=O)N[C@@H](CCCCCC(=O)[C@@H]2CO2)C(=O)N[C@H]1Cc1ccccc1` [Trapoxin] (cyclo(FF[dP][Aoe])), for which, in [7], the “Sensitivity of HDAC10 to the inhibitor” value is on record as “No”. Also, the “Sensitivity of HDAC6 to the inhibitor” value in data set [3] is listed as “No”. Further, the “Sensitivity of HDAC3 to the inhibitor” value in data set [5] (Class 1 HDAC) is “Yes”. Moreover, the IC50 in data set [5] was around 0.1 µM.
Consider `CC(/C=C/C(=O)NO)=C\[C@@H](C)C(=O)c1ccc(N(C)C)cc1` [Trichostatin A, trichostatin A], for which, in data set [8], the “Sensitivity of HDAC8 to the inhibitor” value was “Yes”. Further, the “Sensitivity of HDAC4 to the inhibitor” value in data set [2] is “Yes”. Also, in data set [7], the “Sensitivity of HDAC10 to the inhibitor” value is “Yes”. Also, the “Sensitivity of HDAC6 to the inhibitor” value in [3] is listed as “Yes”. Besides, the “Sensitivity of HDAC9 to the inhibitor” value in data set [9] was “Yes”. In addition, the “Sensitivity of HDAC1 to the inhibitor” value in data set [4] was “Yes”. In addition, the “Sensitivity of Class 3 HDACs to the inhibitor” value in data set [10] is “Resistance”. Besides, the “Sensitivity of HDAC5 to the inhibitor” value in data set [11] is recorded as “Yes”.
In the case of `CCCC(CCC)C(=O)O` [Valpoic Acid, valproic acid], the “Sensitivity of HDAC2 to the inhibitor” value in data set [12] is listed as “yes”. Besides, in data set [4], the “Sensitivity of HDAC1 to the inhibitor” value is recorded as “yes”.
Turning to `CCCC(=O)[O-].[Na+]` [sodium butyrate], in data set [8], the “Sensitivity of HDAC8 to the inhibitor” value is reported as “Yes”. Also, in data set [7], the “Sensitivity of HDAC10 to the inhibitor” value is “No”. The “Sensitivity of HDAC6 to the inhibitor” value in data set [3] is “No”. Moreover, the “Time at which BRM protein levels returned to baseline after medium change” value in data set [13] (5 mM for three consecutive days, medium changed on fourth day (FIG. 3B)) was 4 to 5 days. Also, the “Change in BRM expression with continued treatment for an additional 48 hours” value in [13] (SW13, after plateau (FIG. 3A)) is “Little change”. Moreover, in data set [13] (setting [15]), the “Time at which BRM protein expression reached a plateau, western blot” value was 24 h and the “Time at which upregulation of BRM protein was detected, western blot” value was 12 h. Besides, in data set [13] (setting [16]), the “Time BRM mRNA level remained elevated after removal, quantitative RT-PCR” value is 3 days and the “Time at which BRM mRNA returned to baseline after removal, quantitative RT-PCR” value is recorded as at most 4 days. Besides, in data set [13] (setting [17]), the “Time BRM protein levels remained elevated after removal” value is 72 h and the “Time at which BRM protein returned to near baseline after removal” value stood at 96 h. Besides, in data set [4], the “Sensitivity of HDAC1 to the inhibitor” value is on record as “Yes” and the IC50 is around 300 µM. Besides, in data set [10], the “Sensitivity of Class 3 HDACs to the inhibitor” value is “Resistance”. The “Induction of BRM, RT-PCR” value in [14] (Panc-1 and H513 cell lines, butyrate treatment) is reported as “failed to demonstrate an appreciable induction”. Moreover, the “Number of the ten BRG1/BRM-deficient cell lines showing BRM transcript re-expression, RT-PCR” value in data set [14] (after butyrate treatment, of ten cell lines) is given as “eight”. Besides, the “Upregulation of BRM, cyber-green quantitation PCR” value in [14] (butyrate treatment, responding BRG1/BRM-deficient cell lines) is on record as 8-20 fold. In addition, in data set [5], the “Sensitivity of HDAC3 to the inhibitor” value is recorded as “Yes” and the IC50 was around 300 µM.

The record behind these values is US7604939B2, “Methods of identifying active BRM expression-promoting HDAC inhibitors” (The Regents of the University of Michigan, priority 2005, dated 2009).
